One data set has as its target p300 (Homo sapiens, UniProt Q09472). Briefly: Histone Acetyltransferase (HAT) in vitro acetylation assay, western blot of H3K27ac / H3K18ac. In kind it is biochemical. To be noted: compound in DMSO. As to the method:
The aim of the in vitro acetylation assay is to measure the enzymatic activity of the various compounds towards p300.
First, the drug is prepared:
Second, dilute p300 in AM1 buffer to a concentration of 40 ng/μL (final concentration in the reaction 20 ng/μL). This is accomplished by diluting 1 μL of p300 (at 0.4 μg/μL) into […] of AM1 buffer.
Third, prepare the Master Mix. Prepare the Master Mix in low protein binding tubes (ThermoFisher Cat. No. 90410), 20 μL system.
Incubate reactions at 30° C. for 30 minutes.
Incubate reactions at 30° C. for 1 hour.
Fourth, perform the western blot assay. • Add 6.7 μL of Laemmli Sample Buffer 4× (Bio-Rad Laboratories Cat. No. 161-0737) for each reaction and boil samples at 95° C. for 5 min. • Charge 10 μL for each sample in 2 Tris Glycine 4-15% gels (Bio-Rad Laboratories Cat. No. 456-1086). Running Buffer: Tris-Glycine 1× (pour in the cell up to the writing “2 gels”). • Run at 90 V for 1 hour (until the gel front reaches the green line of cell). • Semi-dry transfer with Trans-Blot® Turbo™ Blotting System from Bio-Rad Laboratories (Trans-Blot® Turbo™ RTA midi PVDF transfer kit Cat. No1704275). • Activate PVDF membrane in methanol for 5 minutes and then wet in Trans-Blot® Turbo™ transfer buffer. • Wet stacks in transfer buffer. • Transfer at 23 V 1.3 A for 7 minutes. • Blocking buffer: 5% Non-Fat milk in TBST (tween 0.1%) 1 hour at room temperature. • Cut the membranes to get Ac-His 3 at 17 kDa and p300 at 300 kDa. • Incubate with primary antibodies overnight at 4° C. • The day after, make 3 washes in TBST (Tween 0.1%) of 10 minutes. • Incubate with secondary antibody at room temperature for 1 hour. • Make 3 washes in TBST (Tween 0.1%) of 5 minutes. • Incubate membranes with ECL (SuperSignal West Dura Extended Duration Substrate from ThermoFisher) for 5 minutes at room temperature. • Acquire the image with ChemiDoc Odyssey Fc 2 minutes.
To detect total H3 (loading control), strip the membranes with Restore™ Western Blot Stripping Buffer according to the manufacturer protocol.
Various compounds were tested for enzymatic activity with respect to Lys 18 and Lys 27. EC50 is indicated for Activators and IC50 for inhibitors respectively.
FIGS. 1A to 25B are graphs showing the lysine residue acetylation as a function of concentration for the compounds set forth in Table 3. The shaded area corresponds to the average values of lysine residue acetylation (continuous line) and their standard error range measured in the absence of compound and DMSO. The number of replicates is represented by “n”.
(Immunoblotting shows a protein as a band on a membrane.)

The nature of data set [1]: Stability in human liver microsomes. In kind it is in vitro ADME. To be noted: for microsomal CLint at 1 μM / half-life at 1 μM: both sexes, human, liver microsomes, pH 7.4, human liver microsomes. The procedure:
Some compounds were tested for stability in human liver microsomes as shown below in Table 2.
Mixed-gender human liver microsomes (Lot #1010420) were purchased from XenoTech. The reaction mixture, minus NADPH, was prepared as described below. The test article was added into the reaction mixture at a final concentration of 1 μM. The control compound, testosterone, was run simultaneously with the test article in a separate reaction. An aliquot of the reaction mixture (without cofactor) was equilibrated in a shaking water bath at 37° C. for 3 minutes. The reaction was initiated by the addition of the cofactor, and the mixture was incubated in a shaking water bath at 37° C. Aliquots (100 μL) were withdrawn at 0, 10, 20, 30, and 60 minutes. Test article and testosterone samples were immediately combined with 400 μL of ice-cold 50/50 acetonitrile (ACN)/H2O containing 0.1% formic acid and internal standard to terminate the reaction. The samples were then mixed and centrifuged to precipitate proteins. All samples were assayed by LC-MS/MS using electrospray ionization. Analytical conditions are outlined in Appendix 1. The peak area response ratio (PARR) to internal standard was compared to the PARR at time 0 to determine the percent remaining at each time point. Half-lives and clearance were calculated using GraphPad software, fitting to a single-phase exponential decay equation.
Liver Microsomes 0.5 mg/mL NADPH (cofactor) 1 mM
Potassium Phosphate, pH 7.4 100 mM
Intrinsic clearance (CLint) was calculated based on CLint=k/P, where k is the elimination constant and P is the protein concentration in the incubation.
(In general: Microsomes from liver hold many membrane-bound enzymes, among them those of drug oxidation.)

Read-outs that look alike come from different tables or passages of the source.

Chain of p300 (Q09472 whole entry, species assumed): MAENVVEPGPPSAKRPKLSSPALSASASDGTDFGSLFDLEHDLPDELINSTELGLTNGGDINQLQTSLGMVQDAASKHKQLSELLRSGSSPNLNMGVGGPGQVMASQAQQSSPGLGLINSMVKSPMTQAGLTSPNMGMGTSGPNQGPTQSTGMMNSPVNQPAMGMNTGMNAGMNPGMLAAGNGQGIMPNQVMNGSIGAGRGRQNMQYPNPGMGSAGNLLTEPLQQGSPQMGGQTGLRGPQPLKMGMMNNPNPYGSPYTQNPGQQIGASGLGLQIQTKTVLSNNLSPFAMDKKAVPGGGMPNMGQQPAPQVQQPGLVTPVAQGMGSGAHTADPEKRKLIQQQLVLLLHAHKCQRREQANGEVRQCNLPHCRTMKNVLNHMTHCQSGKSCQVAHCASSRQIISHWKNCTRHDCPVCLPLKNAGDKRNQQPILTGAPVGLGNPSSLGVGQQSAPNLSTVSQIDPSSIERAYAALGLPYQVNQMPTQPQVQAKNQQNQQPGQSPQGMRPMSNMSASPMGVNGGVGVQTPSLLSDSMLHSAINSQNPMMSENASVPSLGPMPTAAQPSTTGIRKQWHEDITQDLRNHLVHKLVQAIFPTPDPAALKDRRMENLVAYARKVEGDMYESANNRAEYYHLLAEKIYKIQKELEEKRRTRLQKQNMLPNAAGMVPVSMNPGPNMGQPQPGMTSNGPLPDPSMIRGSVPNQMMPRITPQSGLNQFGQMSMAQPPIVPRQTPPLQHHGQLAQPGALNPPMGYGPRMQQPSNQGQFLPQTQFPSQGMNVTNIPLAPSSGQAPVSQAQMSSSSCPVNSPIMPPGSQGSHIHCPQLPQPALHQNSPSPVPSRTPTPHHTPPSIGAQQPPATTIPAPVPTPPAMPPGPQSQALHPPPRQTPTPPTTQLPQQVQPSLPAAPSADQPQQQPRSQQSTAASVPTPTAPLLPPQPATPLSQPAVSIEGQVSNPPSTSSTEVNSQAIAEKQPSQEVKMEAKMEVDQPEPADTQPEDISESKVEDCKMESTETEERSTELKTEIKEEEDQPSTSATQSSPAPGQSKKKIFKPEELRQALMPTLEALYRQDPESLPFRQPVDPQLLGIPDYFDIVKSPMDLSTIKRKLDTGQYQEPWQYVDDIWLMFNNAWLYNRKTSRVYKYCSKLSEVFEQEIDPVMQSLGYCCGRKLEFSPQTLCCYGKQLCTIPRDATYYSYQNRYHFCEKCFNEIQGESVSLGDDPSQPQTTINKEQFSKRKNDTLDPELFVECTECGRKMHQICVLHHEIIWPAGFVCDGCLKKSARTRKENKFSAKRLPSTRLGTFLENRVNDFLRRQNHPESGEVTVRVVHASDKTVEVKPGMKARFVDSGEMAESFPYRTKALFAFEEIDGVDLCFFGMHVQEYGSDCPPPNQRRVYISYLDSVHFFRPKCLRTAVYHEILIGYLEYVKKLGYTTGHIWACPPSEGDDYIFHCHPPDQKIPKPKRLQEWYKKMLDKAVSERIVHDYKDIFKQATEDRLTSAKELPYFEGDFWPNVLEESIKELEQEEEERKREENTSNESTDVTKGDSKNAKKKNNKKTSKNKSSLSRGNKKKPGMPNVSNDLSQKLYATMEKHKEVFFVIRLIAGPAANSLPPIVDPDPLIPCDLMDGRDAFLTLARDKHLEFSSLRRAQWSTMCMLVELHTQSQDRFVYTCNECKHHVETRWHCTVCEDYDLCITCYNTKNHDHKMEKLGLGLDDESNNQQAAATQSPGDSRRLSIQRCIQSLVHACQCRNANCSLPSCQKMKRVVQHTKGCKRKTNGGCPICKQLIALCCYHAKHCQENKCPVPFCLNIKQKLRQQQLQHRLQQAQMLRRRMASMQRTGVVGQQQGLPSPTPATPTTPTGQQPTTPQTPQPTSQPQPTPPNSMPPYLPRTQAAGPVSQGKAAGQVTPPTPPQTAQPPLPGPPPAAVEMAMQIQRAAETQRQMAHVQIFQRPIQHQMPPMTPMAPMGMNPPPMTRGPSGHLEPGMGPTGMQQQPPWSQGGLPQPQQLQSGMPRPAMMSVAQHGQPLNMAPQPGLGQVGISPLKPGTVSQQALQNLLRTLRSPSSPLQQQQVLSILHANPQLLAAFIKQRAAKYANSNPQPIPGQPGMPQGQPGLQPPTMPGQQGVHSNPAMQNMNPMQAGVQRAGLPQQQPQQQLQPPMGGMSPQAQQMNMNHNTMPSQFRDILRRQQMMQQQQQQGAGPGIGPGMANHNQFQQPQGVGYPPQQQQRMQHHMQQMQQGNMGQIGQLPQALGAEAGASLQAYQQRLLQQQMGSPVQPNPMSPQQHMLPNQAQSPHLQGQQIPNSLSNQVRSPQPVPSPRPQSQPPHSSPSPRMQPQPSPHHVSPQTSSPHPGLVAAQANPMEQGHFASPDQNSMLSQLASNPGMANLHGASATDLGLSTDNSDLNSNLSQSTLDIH

Consider `COc1cccc(OC)c1C(=O)Nc1ccc(Cl)c(C(F)(F)F)c1` [RA010115], for which the “H3-Lys 27 EC50” value on p300 (EC50 for activators) is recorded as “NO ACTIVITY”. The EC50 (in general, the midpoint of the concentration-response curve) on p300 (EC50 for activators, read-out: H3-Lys 18 EC50) worked out at 0.137 µM. In addition, the “H3-Lys 27 IC50” value on p300 (IC50 for inhibitors) was “NO ACTIVITY”. The microsomal CLint at 1 μM is 150 µL/min/mg in data set [1] (calculated value printed in parentheses behind the bound, read-out: CLint, value in parentheses) and greater than 139 µL/min/mg in data set [1] (read-out: CLint). Also, the half-life – broadly, the time in which the quantity being followed falls by half – at 1 μM is 9.25 min in data set [1] (fitted value printed in parentheses behind the bound, read-out: Half-life, value in parentheses) and less than 10 min in data set [1] (read-out: Half-life). Further, the “% Remaining of Initial (n = 1) 0 min” value in data set [1] (human liver microsomes, test article 1 μM, 0 min) is reported as 100%. Besides, the “% Remaining of Initial (n = 1) 10 min” value in data set [1] (human liver microsomes, test article 1 μM, 10 min) was 47.7%. The “% Remaining of Initial (n = 1) 20 min” value in data set [1] (human liver microsomes, test article 1 μM, 20 min) stood at 21.1%. Further, the “% Remaining of Initial (n = 1) 30 min” value in data set [1] (human liver microsomes, test article 1 μM, 30 min) is reported as 11.4%. The “% Remaining of Initial (n = 1) 60 min” value in data set [1] (human liver microsomes, test article 1 μM, 60 min) stood at 2.59%.

The values are drawn from patent US20220127232A1, “HISTONE ACETYLTRANSFERASE MODULATORS AND COMPOSITIONS AND USES THEREOF” (The Trustees of Columbia University in the City of New York, priority 2019, published 2022).
